Results taken from patent US10869873B2 (priority 2011, dated 2020).

What was measured:
[1] = tested on: HeLa-derived TZM-b1 cells; experiment: Viability of HIV-1 infected TZM-b1 cells; format: cell-based, human; details: HIV-1 infected TZM-b1 cells treated daily for 4 days
Excerpt: To test the hypothesis that AAK1 and GAK are important for HIV infection, HeLa-derived TZM-b1 cells were used, which express CD4, CCR5 and CXCR4, as well as β-galactosidase and firefly luciferase reporter genes responsive to HIV transcription (Wei et al., Antimicrobial agents and chemotherapy 46:1896-1905, 2002). Cells were transfected with siRNAs targeting AAK1, GAK or a NT sequence followed by infection with the infectious HIV-1 NL4-3 clone (Adachi et al., J Virol 59:284-291, 1986), as described (Zhou et al., Cell Host & Microbe 4:495-504, 2008). Luciferase activity was measured at 96 hr postinfection.
Following 24, 48, and 72 hrs of treatment with inhibitory compounds or silencing with siRNAs, cells were incubated for 2-4 hrs at 37° C. in the presence of 10% AlamarBlue reagent (TREK Diagnostic Systems), as described (Einav et al., Nature Biotechnology 26, 1019-1027, 2008). Plates were then scanned and fluorescence was detected by using FLEXstation II 384 (Molecular Devices, Inc.).

HIV-1 NL4-3 = experiment: HIV replication assay in TZM-b1 cells, luciferase; format: cell-based; details: for antiviral effect on HIV replication: HIV-1 infected TZM-b1 cells treated daily with serial dilutions for 4 days; for EC50: Human immunodeficiency virus 1, NL43, TZM-b1, 96 h, read-out: EC50, HIV replication
core-AP2M1 binding = experiment: Core-AP2M1 co-immunoprecipitation in membranes of HCV infected Huh-7.5 cells; format: cell-based, HCV core / human AP2M1; details: membranes of Huh-7.5 cells infected with J6/JFH, 100 nM calyculin-A
Protocol: To determine whether core binds AP2M1 in the context of authentic HCV infection, co-immunoprecipitation assays in membrane fractions prepared from Huh-7.5 cells infected with cell culture-grown HCV (J6/JFH) were performed (Lindenbach et al., Science 309:623-626, 2005). AP2M1 could bring down core when anti-AP2M1 antibodies but not IgG controls were added to the membrane lysates. […] (FIG. 2D). […] Colocalization of core with AP2M1 in Huh-7.5 cells 72 hr following electroporation with J6/JFH HCV RNA was also investigated.
Membranes were prepared from ˜20×10^6 Huh-7.5 cells infected with HCV (J6/JFH) (Lindenbach, et al., Science 309, 623-626, 2005), as previously described (Einav et al., J Virol 78, 11288-11295, 2004). Briefly, cells were collected by trypsinization, washed once with PBS and resuspended in HME buffer (20 mM HEPES [pH 7.4], 1 mM EDTA, 2 mM MgCl2), supplemented with phenylmethylsulfonyl fluoride to a final concentration of 1 mM and a protease inhibitors cocktail (Sigma). Cells were lysed by two cycles of freeze-thaw in dry ice-ethanol and then passaged through a 27.5-gauge needle 10 times. Nuclei were removed by centrifugation at 250×g for 10 min, and the postnuclear supernatant was subjected to ultracentrifugation at 100,000×g for 30 min to obtain the membrane preparation. All steps were done at 4° C. […] Immunoprecipitates were analyzed by western blotting. […]

Row | SMILES | effect on viability [1] | antiviral effect on HIV replication (HIV-1 NL4-3) | binding of core to AP2M1 (co-immunoprecipitation) (core-AP2M1 binding) | EC50 (HIV-1 NL4-3) [nM]
1 | CO[C@@H]1[C@H](N(C)C(=O)c2ccccc2)C[C@H]2O[C@]1(C)n1c3ccccc3c3c4c(c5c6ccccc6n2c5c31)C(=O)NC4 [PKC-412] | no effect on viability | significant dose response antiviral effect |  | 
2 | COC[C@@H]([C@H](O)[C@H](O)C(=O)NCC[C@H](C)c1nc(/C=C/C[C@@H]2O[C@]3(C[C@@H](O)[C@@H]2C)O[C@H]([C@H](C[C@H](O)[C@H](C)[C@H](O)[C@H](C)/C=C(C)/C(C)=C/C=C/C(C)=C\C#N)OC)[C@H](OP(=O)(O)O)C3(C)C)co1)N(C)C [calyculin A] |  |  | significantly augmented | 
3 | C#Cc1cccc(Nc2ncnc3cc(OCCOC)c(OCCOC)cc23)c1 [erlotinib] | no effect on viability | significant dose response antiviral effect |  | 1400 ± 300
4 | CCN(CC)CCNC(=O)c1c(C)[nH]c(/C=C2\C(=O)Nc3ccc(F)cc32)c1C [sunitinib] | no effect on viability |  |  | 800 ± 400
